In patent US20070015774A1, “Quinazoline derivatives useful in cancer treatment” (Schering Corporation, priority 2005, published 2007):

molecular target: GST-p53 DNA binding domain (aa 92-aa 312) (Homo sapiens, UniProt P04637); assay: Scintillation Proximity Assay (SPA), displacement of 3H STANDARD COMPOUND; settings: 1 h, 2 ug/mL of drug; exact values; number in brackets = number of determinations averaged; read-out: SPA ASSAY % Residual T @ 2 ug/mL of drug (Average of)
From the text: Most of the oncogenic mutants of the tumor suppressor protein p53 lack sequence specific DNA binding activity at physiological temperature due to conformational changes in the DNA binding domain. Small molecules and peptide which bind to the p53 DNA binding domain stabilize the conformation and restore DNA binding activity to mutant p53 protein (Science 286, 2507-2510, 1999; PNAS, 99, 937-942, 2002). Using ^3H STANDARD COMPOUND (structure shown below; carbon atom with * is the atom labelled), [drawing 1366] a radio labeled small molecule which binds to p53, and the GST-p53 DNA binding domain (aa 92-aa 312), we have developed a quantitative screening assay. The assay is based on Scintillation Proximity Assay (SPA) technology, developed by Amersham Biosciences to measure molecular interactions. Briefly, the complex of GST-p53, ^3H STANDARD and Glutathione-SPA beads (Amersham Biosciences) are incubated with mixing for 1 hr at room temperature in the presence of the novel compounds to be screened. The signal is read on Microbeta. The compounds which have the ability to displace ^3H STANDARD COMPOUND are selected. Such molecules will stabilize the conformation and restore DNA binding activity to mutant p53 protein.
The above assay was used to determine the ability of the compounds of this invention to directly bind to p53 core and restore DNA binding activity to mutant p53 and the results for selected compounds have been given above in various tables.
A letter rating corresponding to % Residual total binding (T) @ 2 ug/mL of drug (i.e., compound of the present invention) from this assay have been assigned as follows: Compounds having % Residual T values of from 0% to less than 20% have been assigned the letter “A”. Compounds having % Residual T values of from 20% to less than 40% have been assigned the letter “B”. Compounds having % Residual T values of from 40% to less than 80% have been assigned the letter “C”. Compounds having % Residual T values of 80% or higher have been assigned the letter “D”. The exact % Residual T values @ 2 ug/mL for some illustrative compounds are shown below: […]

GST-p53 DNA binding domain (aa 92-aa 312), sequence (P04637 92-312): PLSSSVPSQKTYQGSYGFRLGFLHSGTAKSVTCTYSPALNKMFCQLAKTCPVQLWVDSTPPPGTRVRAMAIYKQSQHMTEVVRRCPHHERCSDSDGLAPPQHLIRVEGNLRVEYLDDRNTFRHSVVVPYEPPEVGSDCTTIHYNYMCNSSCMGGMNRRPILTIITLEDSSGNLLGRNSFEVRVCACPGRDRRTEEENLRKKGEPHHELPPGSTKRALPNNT

Row | Structure (SMILES) | remaining activity at 2 µg/mL
1 | CN(C)CCCNc1nc(CN(C)Cc2cccc3cc[nH]c23)nc2ccccc12 [38-33] | 25.7%
2 | Cc1c(CN(C)Cc2nc(NCCCN(C)C)c3ccccc3n2)sc2ccccc12 [38-56] | 23.6%

same assay, conditions: 1 h, 2 ug/mL of drug; letter rating; number in brackets = number of determinations averaged; read-out: SPA ASSAY % Residual T @ 2 ug/mL of drug (Average of)

Row | Structure (SMILES) | remaining activity at 2 µg/mL
3 | CC(C)CCN(C)Cc1nc(NCCCN(C)C)c2ccccc2n1 [38-1] | 20 to 40%
4 | CCC(C)CN(C)Cc1nc(NCCCN(C)C)c2ccccc2n1 (stereo not shown) [38-2] | 40 to 80%
5 | CN(C)CCCNc1nc(CN(C)Cc2ccco2)nc2ccccc12 [38-3] | 40 to 80%
6 | CN(C)CCCNc1nc(CN(C)Cc2ccoc2)nc2ccccc12 [38-4] | 40 to 80%
7 | CN(C)CCCNc1nc(CN(C)Cc2cccs2)nc2ccccc12 [38-8] | ≥ 80%
8 | CN(C)CCCNc1nc(CN(C)Cc2nccs2)nc2ccccc12 [38-10] | 20 to 40%
9 | CN(C)CCCNc1nc(CN(C)Cc2cccc(F)c2)nc2ccccc12 [38-16] | ≥ 80%
10 | CN(C)CCCNc1nc(CN(C)Cc2ccccc2C#N)nc2ccccc12 [38-18] | 40 to 80%
11 | CN(C)CCCNc1nc(CN(C)Cc2cccc(C#N)c2)nc2ccccc12 [38-19] | 40 to 80%
12 | CN(C)CCCNc1nc(CN(C)Cc2ccc(C#N)cc2)nc2ccccc12 [38-20] | 40 to 80%
13 | CN(C)CCCNc1nc(CN(C)C/C=C/c2ccccc2)nc2ccccc12 [38-21] | ≥ 80%
14 | Cc1cccc(C)c1CN(C)Cc1nc(NCCCN(C)C)c2ccccc2n1 [38-24] | ≥ 80%
15 | COc1ccc(CN(C)Cc2nc(NCCCN(C)C)c3ccccc3n2)cc1 [38-27] | 40 to 80%
16 | CN(C)CCCNc1nc(CN(C)Cc2ccc(Cl)cc2)nc2ccccc12 [38-30] | 40 to 80%
17 | CN(C)CCCNc1nc(CN(C)Cc2c(F)cccc2F)nc2ccccc12 [38-31] | 40 to 80%
18 | CCOC(=O)C1CC1CN(C)Cc1nc(NCCCN(C)C)c2ccccc2n1 (stereo not shown) [38-32] | 40 to 80%
19 | CN(C)CCCNc1nc(CN(C)Cc2cccc3cc[nH]c23)nc2ccccc12 [38-33] | 20 to 40%
20 | CN(C)CCCNc1nc(CN(C)Cc2cc3ccccc3o2)nc2ccccc12 [38-34] | 40 to 80%
21 | CC(CCN(C)Cc1nc(NCCCN(C)C)c2ccccc2n1)c1ccccc1 (stereo not shown) [38-35] | ≥ 80%
22 | CN(C)CCCNc1nc(CN(C)Cc2ccccc2C(=O)O)nc2ccccc12 [38-36] | ≥ 80%
23 | CN(C)CCCNc1nc(CN(C)Cc2cccc3c2OCO3)nc2ccccc12 [38-37] | 40 to 80%
24 | CN(C)CCCNc1nc(CN(C)Cc2cccc3ccccc23)nc2ccccc12 [38-41] | 40 to 80%
25 | CN(C)CCCNc1nc(CN(C)Cc2ccc3ccccc3c2)nc2ccccc12 [38-42] | 40 to 80%
26 | COC(=O)c1ccc(CN(C)Cc2nc(NCCCN(C)C)c3ccccc3n2)cc1 [38-46] | 40 to 80%
27 | CN(C)CCCNc1nc(CN(C)Cc2cccc(C(F)(F)F)c2)nc2ccccc12 [38-48] | 40 to 80%
28 | CN(C)CCCNc1nc(CN(C)Cc2cccc(Cl)c2Cl)nc2ccccc12 [38-50] | ≥ 80%
29 | CN(C)CCCNc1nc(CN(C)Cc2cc(Cl)ccc2Cl)nc2ccccc12 [38-52] | 40 to 80%
30 | Cc1c(CN(C)Cc2nc(NCCCN(C)C)c3ccccc3n2)sc2ccccc12 [38-56] | 20 to 40%
31 | CN(C)CCCNc1nc(CN(C)Cc2ccccc2OCC(=O)O)nc2ccccc12 [38-57] | ≥ 80%
32 | CN(C)CCCNc1nc(CN(C)Cc2ccc(-c3ccccc3)cc2)nc2ccccc12 [38-59] | ≥ 80%

same assay, conditions: 1 h, 2 ug/mL of drug; residual total binding of 3H STANDARD COMPOUND; lower is better; read-out: SPA ASSAY % Residual T @ 2 ug/mL of drug (Average of)

Row | Structure (SMILES) | remaining activity at 2 µg/mL
33 | COC(=O)[C@@H](Nc1nc(CNC(=O)Nc2ccccc2C(F)(F)F)nc2ccccc12)C(C)C [34-36] | 40 to 80%
34 | COC(=O)[C@@H](Nc1nc(CNC(=O)Nc2ccc(Cl)c(Cl)c2)nc2ccccc12)C(C)C [34-39] | 40 to 80%
35 | COC(=O)[C@@H](Nc1nc(CNC(=O)Nc2cc(Cl)cc(Cl)c2)nc2ccccc12)C(C)C [34-40] | 40 to 80%
36 | COC(=O)[C@@H](Nc1nc(CNC(=O)Nc2ccccc2-c2ccccc2)nc2ccccc12)C(C)C [34-41] | 40 to 80%
37 | COC(=O)[C@@H](Nc1nc(CNC(=O)Nc2cccc(Br)c2)nc2ccccc12)C(C)C [34-42] | 40 to 80%
